# Assay results: patent US11878050B2, “Glycoside hydrolases to treat biofilm-associated infections” (priority 2018, dated 2024)
# Key:
# [1] = test system: bioluminescent P. aeruginosa; assay: Antibiotic protection and infection clearance in vivo (IVIS); parameters: species or system mice
# Experimental: Glycoside hydrolase and antibiotic treatments. Established infections were treated via topical application of vehicle control, heat-inactivated GH, antibiotic alone (or in combination with heat-inactivated GH), GH alone, or GH plus antibiotic (meropenem). Briefly, woundbeds were irrigated with a 10% α-amylase and cellulase (in a 1:1 combination) solution in three separate topical infusions with 30 minutes of dwell time for each, with or without antibiotics. Septicemia was determined by monitoring animals for signs of systemic illness (lethargy, loss of appetite, labored breathing, tremors), and moribund mice were euthanized via phenobarbital injection. […] In order to image dispersal in vivo, the inventors used a Lumina II XR In Vivo Imaging System (IVIS®). Mice with established wound infections were administered GH therapy, and imaging occurred immediately following treatment, and every 4-5 hours subsequently. For experiments involving systemic antibiotic therapy, peritoneal dosing of 300 mg/kg meropenem occurred 4 hours prior to, and 8 hours following GH treatment. […]
# To test if concurrent systemic or topical antibiotics can protect against dispersal-mediated septicemia, 48-hour chronic wound infections comprised of bioluminescent P. aeruginosa were treated with 10% GH as above, and monitored via IVIS for systemic spread.
# biofilms = conditions: cited from earlier work; for Summary (biofilm-disrupting ability): Table 1, literature
# [2] = test system: S. aureus and P. aeruginosa biofilms; assay: Crystal violet biomass assay; type: cell-based
# Experimental: Crystal violet assay. A traditional in vitro crystal violet (CV) biomass assay was performed by inoculating the wells of a 24-well non-tissue culture treated plate (Falcon®) containing 13 mm plastic cell culture coverslips with 1:100 dilutions of overnight cultures of S. aureus and P. aeruginosa in fresh LB broth, and allowing for 48 hours of growth at 37° C., with shaking at 80 rpm. Planktonic cells were then removed via rinsing with PBS, and the biofilm-coated coverslips were treated with enzyme solutions, vehicle, or heat-inactivated controls. After treatment, the coverslips were rinsed with ddH2O, and the remaining biomass was stained with 1% CV in ddH2O for 20 minutes. Coverslips were then rinsed once more with ddH2O and transferred to fresh wells, in which the CV was eluted in 95% ethanol for 1 hour. The eluted CV from treated vs. untreated samples was quantified via absorbance of 595 nm light in a Synergy H1 Hybrid Reader (Biotek®).
# [3] = test system: S. aureus and P. aeruginosa biofilms; assay: In vitro well-plate cell dispersal assay; type: cell-based; conditions: 5% GH solutions, 30 minutes, vs vehicle and heat-inactivated controls
# Experimental: (§1) In vitro cell dispersal. To measure percent dispersal in vitro, the wells of a 24-well non-tissue culture treated plate (Falcon®) were inoculated with 1:100 dilutions of overnight cultures of S. aureus and P. aeruginosa, and biofilms were allowed to grow for 48 hours at 37° C., with shaking at 80 rpm. Following incubation, the supernatant was removed, and each well was gently rinsed with PBS to discard any non-attached biomass. Subsequently, wells were treated with enzyme solutions, vehicle, or heat-inactivated controls. Following treatment, the supernatant was removed and centrifuged at 11,000 rcf for 10 minutes in order to pellet the cells. Cell pellets were then re-suspended in PBS for CFU quantification. Biofilm remaining on the wells were dispersed via sonication and suspended in PBS for CFU quantification. Percent bacterial cell dispersal was calculated by finding the quotient of […].
# [4] = test system: S. aureus and P. aeruginosa; assay: Total CFU after GH treatment in vitro (bactericidal activity); type: cell-based; conditions: 5% GH solutions, 30 minutes
# Experimental: as §1
# [5] = test system: S. aureus and P. aeruginosa polymicrobial biofilms harvested from murine chronic wounds; assay: Ex vivo treatment of murine chronic wound biofilms: biomass degraded; type: cell-based; conditions: 5% enzyme solutions, 1 hour
# Text: (§2) Murine chronic wound model. A murine chronic wound model has been previously described [Dalton T, Dowd S E, Wolcott R D, Sun Y, Watters C, Griswold J A, et al. An in vivo polymicrobial biofilm wound infection model to study interspecies interactions. PLoS One. 2011; 6(11):e27317. Epub 2011/11/15. Brown R L, Greenhalgh D G. Mouse models to study wound closure and topical treatment of infected wounds in healing-impaired and normal healing hosts. Wound Repair Regen. 1997; 5(2):198-204. Epub 1997/04/01. Rumbaugh K P, Diggle S P, Watters C M, Ross-Gillespie A, Griffin A S, West S A. Quorum sensing and the social evolution of bacterial virulence. Curr Biol. 2009; 19(4):341-5. Epub 2009/02/24, relevant portions incorporated herein by reference]. […] Percent dispersal, percent biomass degraded, and antibiotic tolerance were calculated as with the LWM, described above.
# (§3) In order to determine if the results obtained in vitro translated to a more clinically relevant model, the inventors tested the ability of GH solutions to degrade the biomass of, and disperse the cells from, biofilms grown in vivo. […] For analysis of biomass degradation, the inventors measured the weights of the extracted wound-beds before and after treatment with GH, and compared the percent reduction in weight to that of biofilms treated with heat-inactivated GH. […]
# [6] = test system: S. aureus and P. aeruginosa polymicrobial biofilms harvested from murine chronic wounds; assay: Ex vivo treatment of murine chronic wound biofilms: cell dispersal; type: cell-based; conditions: 5% enzyme solutions, 1 hour, vs vehicle and heat-inactivated controls
# Text: as §2, §3
# [7] = test system: S. aureus and P. aeruginosa biofilms; assay: Lubbock Chronic Wound Biofilm Model (wound-like media); type: cell-based
# Text: Lubbock Chronic Wound Biofilm Model. The Lubbock Chronic Wound Biofilm Model, or Lubbock wound model (LWM), has been previously described [Sun Y, Dowd S E, Smith E, Rhoads D D, Wolcott R D. In vitro multispecies Lubbock chronic wound biofilm model. Wound Repair Regen. 2008; 16(6):805-13. Epub 2009/01/09. DeLeon S, Clinton A, Fowler H, Everett J, Horswill A R, Rumbaugh K P. Synergistic interactions of Pseudomonas aeruginosa and Staphylococcus aureus in an in vitro wound model. Infect Immun. 2014; 82(11):4718-28. Epub 2014/08/27. Dalton T, Dowd S E, Wolcott R D, Sun Y, Watters C, Griswold J A, et al. An in vivo polymicrobial biofilm wound infection model to study interspecies interactions. PLoS One. 2011; 6(11):e27317. Epub 2011/11/15, relevant portions incorporated herein by reference]. Briefly, wound-like media (50% bovine plasma, 45% Bolton broth, 5% laked horse blood) was inoculated with […] bacterial cells, and incubated for 48 hours, statically, at 37° C. […] Percent bacterial cell dispersal was calculated by finding the quotient of […]. Percent biomass degraded was calculated by rinsing to remove the post-treatment supernatant, weighing the remaining biomass, and finding the quotient of the post-treatment biofilm weight divided by the pre-treatment biofilm weight. […]
compound,measurement,setting,value
C[C@@H](O)[C@H]1C(=O)N2C(C(=O)O)=C(S[C@@H]3CN[C@H](C(=O)N(C)C)C3)[C@H](C)[C@H]12 [meropenem],protection against GH dispersal-induced dissemination,[1]; systemic meropenem (300 mg/kg) with 10% GH,prevented dissemination of P. aeruginosa
same,protection against GH dispersal-induced dissemination,[1]; topical meropenem (3 mg/ml) with 10% GH,prevented dissemination of P. aeruginosa
Hyaluronidase [reference compound],Summary (biofilm-disrupting ability),biofilms,"against HA-containing biofilms, dispersal"
cellulase,degradation of pre-formed biofilms (crystal violet),"[2]; 0.0025%, 10 minutes",significantly degraded
same,biomass of the biofilms (retention of crystal violet stain),"[2]; 0.25% GH solution, 30 minutes, 48 h biofilms",significant reduction in biomass
same,percent dispersal,[3],significant amount of dispersal
same,"total CFU (supernatant + biofilm), bactericidal activity",[4],no bactericidal activity
same,percent biomass degraded,[5],able to degrade
same,percent dispersal,[6],significantly more total cell dispersal
same,disassociation of biofilms cultured in wound-like media,"[7]; 10%, 1 hour, 24-hour-old polymicrobial biofilms",completely disassociates
same,Summary (biofilm-disrupting ability),biofilms,shown to cause the dispersal of S. aureus
same,biofilm inhibition / disruption in earlier studies,biofilms; literature,inhibits biofilm growth by Burkholderia cepacia and Pseudomonas aeruginosa
gentamicin sulfate [reference compound],cells remaining viable after gentamicin treatment,"[7]; P. aeruginosa and S. aureus co-cultured in the LWM, gentamicin alone",approximately half
